Laboratory results published in publication PMC9785777, “Antidiabetic Potential of Novel 1,3,5-Trisubstituted-2-Thioxoimidazloidin-4-One Analogues: Insights into α-Glucosidase, α-Amylase, and Antioxidant Activities” (Pharmaceuticals, 2022).
Values after ≈ are worked out from the molar mass of the structure shown. Values joined by “and” are separate entries in the source; they are usually repeats but may differ in a detail not shown here. Equal values may be shown once.

Experiments:
[1] = MTT cytotoxicity assay against WI-38 cells; format: cell-based, human; settings: human, WI-38 lung fibroblast cells
Description: (§1) Based on the promising dual inhibitory activity of this class of compounds, we next evaluated the cytotoxicity of compounds 5a and 7a against human lung fibroblast cell line WI-38 in order to gain insights into the toxicity of this class of compounds utilizing the MTT assay. In this regard, lung fibroblast cells were cultured and treated with compounds 5a and 7a for 48 h at different concentrations (1000, 250, 63, 16, and 4 µg/mL). After the cells were washed, they were treated with MTT solution and the absorption was assessed using an ELISA reader at 570 nm. As a pharmacological reference drug, Celecoxib, a well-known anti-inflammatory agent, was utilized.
(§2) The cytotoxicity of compounds 5a and 7a was assessed toward the human lung fibroblast WI-38 cell line (Sigma-Aldrich, St. Louis, MO, USA, product number 90020107) using MTT assay. The MTT test assay was performed in accordance with the previously stated procedure. MTT (3-(4,5-dimethylthiazol-2-yl)-2,5-diphenyl tetrazolium bromide; Sigma catalog no. M2128) was dissolved in PBS at 5 mg/mL and processed to eliminate the insoluble residues. Briefly, cells (10^5 cells/well) were treated for 48 h at 37 °C with compounds 5a and 7a at varied doses (1000, 250, 63, 16, and 4 µg/mL, DMSO stock solutions) in a 5% CO2 atmosphere. In our assessment, celecoxib, an inhibitor of cyclooxygenase 2, was employed as a standard reference drug. Following cell washing, MTT solution (180 µL/well) was applied to the cells and incubated at 37 °C for 4 h with shaking, and the absorbance was measured using an ELISA reader at 570 nm.

[2] = test system: human lung fibroblast WI-38 cell line; assay: MTT cytotoxicity assay against WI-38 cells; format: cell-based; settings: MTT, 48 h
Description: as §1, §2

[3] = ROS-generation assay (H2O2 generated with DTT, HRP-phenol red, 610 nm); settings: 50 µM compound, incubated with DTT; control 90.74±5.54
Text: The […] metabolites and enzymes (such as NADPH oxidase, lipoxygenase, and cytochrome P450) act together to mediate the production of ROS and diminish the counteractive oxidative damage. ROS can cause damage to DNA, lipid, proteins, and nucleic acids and the destruction of cell components leading to cell death. Toward this end, we aimed to investigate whether the mode of action of this class of compounds involved the generation of ROS. ROS-producing compounds upon reaction with a reducing agent in the presence of oxygen afford superoxide O^•−2 radical and hydrogen peroxide (H2O2) which could be quantitively estimated. Thus, compounds 5a and 7a (at 50 µM concentration) were incubated with the reducing agent dithiothreitol (DTT) and the generated H2O2 was subsequently assessed by monitoring the oxidation of phenol red in the presence of horseradish peroxidase (HRP) at the absorbance of 610 nm. We first examined the validity of the assay by examining the activity of a known ROS-producing standard drug. In our study, Celecoxib was utilized as a reference pharmacological ROS-generating drug. […] Next, we evaluated the potency of compounds 5a and 7a to produce ROS at a 50 µM concentration.
According to Nasiri et al., the antioxidant activity of compounds (5a, 7a) and Celecoxib was measured by an evaluation of ROS-generation using ELISA analysis. Three different solutions were prepared for the in vitro assessment of ROS-generation: phenol red, sodium hydroxide solution, and DTT. All reagents were provided by Sigma-Aldrich. A stock solution of DTT (20 mM) was prepared by dissolving […] of DTT in 500 µL of Hank’s Balanced Salt Solution (HBSS), and the obtained solution was preserved at −20 °C. The stock solution was further diluted with HBSS to 0.8 mM for each measurement. The HRP-PR solution was prepared by dissolving 1.8 mg of horseradish peroxidase (HRP) and 3 mg of phenol red (PR) in 10 mL of HBSS. […] After incubation, 1N NaOH was applied, and the absorbance at 610 nm was measured using a plate reader spectrometer. […]

[4] = biological target: α-amylase; settings: cited from earlier work
[5] = biological target: α-glucosidase; settings: cited from earlier work
[6] = test system: INS-1 cells; parameters: method as in PMID 10918947; settings: 10 µg/mL, in the presence of 5.6 mmol/L glucose ref 36; cited from earlier work

Compound: Cc1ccc(-c2cc(C(F)(F)F)nn2-c2ccc(S(N)(=O)=O)cc2)cc1 [Celecoxib, reference compound]
- viability at 48 h, 4 µg/mL ([1]; 4 µg/mL (log conc. 0.602)): 67.3%
- viability at 48 h, 16 µg/mL ([1]; 16 µg/mL (log conc. 1.204)): 61.7%
- viability at 48 h, 63 µg/mL ([1]; 63 µg/mL (log conc. 1.799)): 54.2%
- viability at 48 h, 250 µg/mL ([1]; 250 µg/mL (log conc. 2.398)): 43%
- viability at 48 h, 1000 µg/mL ([1]; 1000 µg/mL (log conc. 3)): 35.4%
- IC50 at 48 h ([1]; MTT): 93 mg/L (≈ 244 µM)
- WI-38 cytotoxicity IC50 [2]: 93.054 mg/L
- ROS produced (generated H2O2) [3]: 171.6 pg/mL and 171.6 ± 1.89 pg/mL

Compound: O=C1CNC(=S)N1C(=O)c1cc([N+](=O)[O-])cc([N+](=O)[O-])c1 [Compound 3j]
- IC50 ([4]; read-out: IC50 toward α-amylase enzyme): 8.2 µM
- IC50 ([5]; read-out: IC50 toward α-glucosidase enzyme): 51 µM

Compound: CN1C(=O)/C(=C/c2ccc(-c3cc(=O)c4ccccc4o3)cc2)N(C)C1=S [Compound 9]
- increase of insulin release as compared to control [6]: 40%

Compound: O=C1CNC(=S)N1 [unsubstituted-2-thiohydantoin, 2-thiohydantoin]
- IC50 toward α-amylase activity [4]: 410.35 mg/L (≈ 3530 µM)
- IC50 toward α-glucosidase activity [5]: 356.22 mg/L (≈ 3070 µM)
